Results taken from patent US11628228B2, “99mTc-labeled isonitrile-containing glucose derivative and preparation method and use thereof” (Beijing Shihong Pharmaceutical Research Center, priority 2017, dated 2023).

Legend:
[1] = Determination of the lipid-water partition coefficient (n-octanol/PBS); assay type: physicochemical
Procedure: One hundred μL of the labeled substance solution (50 μCi) diluted with normal saline is placed into a 2 mL centrifuge tube, and then 800 μL of n-octanol and 700 μL of PBS are added to the centrifuge tube, which is subsequently covered with a cap. The centrifuge tube is vortexed for 3 minutes (2500 r/minute), allowed to stand until the solution is layered, and centrifuged in a centrifuge for 3 minutes (3000 r/minute). Three samples of the upper organic phase and three samples of the lower aqueous phase are taken, each 100 μL, and detected in a γ-counter for the radioactive counts of the organic and aqueous phases, respectively.

S180-bearing mice = experiment: Bio-distribution in tumor-bearing mice; assay type: in vivo; conditions: for Blood uptake / Bone uptake / Heart uptake / Kidney uptake / Liver uptake / Lung uptake / Muscle uptake / Small intestine uptake / Spleen uptake / Stomach uptake / Tumor uptake / Tumor/blood ratio / Tumor/muscle ratio: S180-bearing mice, tail vein
Procedure: The labeled solution (0.1 mL, 74 KBq) is injected into mice through the tail vein, and the injection time is recorded. Then the mice were killed by cervical dislocation at different time phases (30 minutes, 60 minutes, and 120 minutes), five mice for each time phase, and the organs of interest such as heart, liver, lung, kidney, spleen, stomach, muscle, blood and tumor are taken out after dissection, and measured with a γ-counter for the radioactive count of each organ. The uptake value of each organ is obtained by calculation based on the mass of the organ (with % ID/g as the unit).

tumor-bearing mice = experiment: SPECT imaging in tumor-bearing mice; assay type: in vivo; conditions: 0.2 mL, 700 μCi tail vein, imaging 1 hour later
Procedure: The prepared [^99mTc-(CN3DG)6]^+ or [^99mTc-(CN5DG)6]^+ (0.2 mL, 700 μCi) is injected into tumor-bearing mice through tail vein, and SPECT imaging is performed 1 hour later.

O=C(CCC[N+]#[C][99Tc-5]([C]#[N+]CCCC(=O)NC1C(O)OC(CO)C(O)C1O)([C]#[N+]CCCC(=O)NC1C(O)OC(CO)C(O)C1O)([C]#[N+]CCCC(=O)NC1C(O)OC(CO)C(O)C1O)([C]#[N+]CCCC(=O)NC1C(O)OC(CO)C(O)C1O)[C]#[N+]CCCC(=O)NC1C(O)OC(CO)C(O)C1O)NC1C(O)OC(CO)C(O)C1O (centres unmarked) [[^99mTc-(CN3DG)6]^+]
Log P (lipid-water partition coefficient) [1]: −4.01±0.17 | Blood uptake (S180-bearing mice; 30 min): 0.78 ± 0.16 % ID/g | Bone uptake (S180-bearing mice; 30 min): 0.27 ± 0.05 % ID/g | Heart uptake (S180-bearing mice; 30 min): 0.40 ± 0.07 % ID/g | Kidney uptake (S180-bearing mice; 30 min): 2.17 ± 0.43 % ID/g | Liver uptake (S180-bearing mice; 30 min): 0.39 ± 0.12 % ID/g | Lung uptake (S180-bearing mice; 30 min): 0.78 ± 0.12 % ID/g | Muscle uptake (S180-bearing mice; 30 min): 0.37 ± 0.08 % ID/g | Small intestine uptake (S180-bearing mice; 30 min): 0.44 ± 0.08 % ID/g | Spleen uptake (S180-bearing mice; 30 min): 0.28 ± 0.05 % ID/g | Stomach uptake (S180-bearing mice; 30 min): 0.64 ± 0.25 % ID/g | Tumor uptake (S180-bearing mice; 30 min): 1.49 ± 0.08 % ID/g | Tumor/blood ratio (S180-bearing mice; 30 min): 1.91 | Tumor/muscle ratio (S180-bearing mice; 30 min): 4.03 | Blood uptake (S180-bearing mice; 60 min): 0.12 ± 0.03 % ID/g | Bone uptake (S180-bearing mice; 60 min): 0.15 ± 0.02 % ID/g | Heart uptake (S180-bearing mice; 60 min): 0.22 ± 0.04 % ID/g | Kidney uptake (S180-bearing mice; 60 min): 1.05 ± 0.21 % ID/g | Liver uptake (S180-bearing mice; 60 min): 0.23 ± 0.03 % ID/g | Lung uptake (S180-bearing mice; 60 min): 0.23 ± 0.04 % ID/g | Muscle uptake (S180-bearing mice; 60 min): 0.17 ± 0.07 % ID/g | Small intestine uptake (S180-bearing mice; 60 min): 0.21 ± 0.14 % ID/g | Spleen uptake (S180-bearing mice; 60 min): 0.15 ± 0.03 % ID/g | Stomach uptake (S180-bearing mice; 60 min): 0.25 ± 0.07 % ID/g | Tumor uptake (S180-bearing mice; 60 min): 1.00 ± 0.17 % ID/g | Tumor/blood ratio (S180-bearing mice; 60 min): 8.33 | Tumor/muscle ratio (S180-bearing mice; 60 min): 5.88 | Blood uptake (S180-bearing mice; 120 min): 0.04 ± 0.02 % ID/g | Bone uptake (S180-bearing mice; 120 min): 0.13 ± 0.04 % ID/g | Heart uptake (S180-bearing mice; 120 min): 0.22 ± 0.05 % ID/g | Kidney uptake (S180-bearing mice; 120 min): 1.23 ± 0.26 % ID/g | Liver uptake (S180-bearing mice; 120 min): 0.28 ± 0.04 % ID/g | Lung uptake (S180-bearing mice; 120 min): 0.17 ± 0.05 % ID/g | Muscle uptake (S180-bearing mice; 120 min): 0.17 ± 0.05 % ID/g | Small intestine uptake (S180-bearing mice; 120 min): 0.14 ± 0.06 % ID/g | Spleen uptake (S180-bearing mice; 120 min): 0.17 ± 0.06 % ID/g | Stomach uptake (S180-bearing mice; 120 min): 0.31 ± 0.06 % ID/g | Tumor uptake (S180-bearing mice; 120 min): 0.68 ± 0.23 % ID/g | Tumor/blood ratio (S180-bearing mice; 120 min): 17.00 | Tumor/muscle ratio (S180-bearing mice; 120 min): 4.00 | Tumor/liver ratio (S180-bearing mice; tumor-bearing mice, 0.5 hour after injection): 3.82 | SPECT imaging: aggregation at the tumor sites (tumor-bearing mice): evident aggregation at the tumor sites | SPECT imaging: concentration in kidney (tumor-bearing mice): relatively high concentration in kidney | SPECT imaging: uptake in other organs (tumor-bearing mice): relatively low
